Experimental data: ChEMBL document CHEMBL3232804, “Synthesis and evaluation of new diaryl ether and quinoline hybrids as potential antiplasmodial and antimicrobial agents” (Bioorg Med Chem Lett, 2014)
In brackets after ≈: the same amount, converted by molar mass.

Tests used:
Plasmodium falciparum [1] = experiment: Antiplasmodial activity against chloroquine-sensitive Plasmodium falciparum 3D7 infected after 72 hrs by Malaria SYBR Green I-staining based fluorescence assay; type: functional, organism-based; details: 3D7, 72 h
Plasmodium falciparum [2] = experiment: Antiplasmodial activity against chloroquine-resistant Plasmodium falciparum K1 infected after 72 hrs by Malaria SYBR Green I-staining based fluorescence assay; type: functional, organism-based; details: K1, 72 h
[3] = Selectivity index, ratio of IC50 for african green monkey Vero cells to IC50 for chloroquine-sensitive Plasmodium falciparum 3D7; type: toxicity, cell-based; details: read-out: Ratio IC50
Escherichia coli = experiment: Antimicrobial activity against Escherichia coli ATCC 9637 after 24 hrs by standard broth microdilution method; type: functional; details: ATCC 9637, 24 h
Pseudomonas aeruginosa = experiment: Antimicrobial activity against Pseudomonas aeruginosa ATCC BAA-427 after 24 hrs by standard broth microdilution method; type: functional; details: ATCC BAA-427, 24 h
Staphylococcus aureus = experiment: Antimicrobial activity against Staphylococcus aureus ATCC 25923 after 24 hrs by standard broth microdilution method; type: functional; details: ATCC 25923, 24 h
Klebsiella pneumoniae = experiment: Antimicrobial activity against Klebsiella pneumoniae ATCC 27736 after 24 hrs by standard broth microdilution method; type: functional; details: ATCC 27736, 24 h
Candida albicans = experiment: Antifungal activity against Candida albicans clinical isolate after 24 to 48 hrs by standard broth microdilution method; type: functional
Cryptococcus neoformans = experiment: Antifungal activity against Cryptococcus neoformans clinical isolate after 24 to 48 hrs by standard broth microdilution method; type: functional
Sporothrix schenckii = experiment: Antifungal activity against Sporothrix schenckii clinical isolate after 72 to 96 hrs by standard broth microdilution method; type: functional
[4] = test system: Trichophyton mentagrophytes; experiment: Antifungal activity against Trichophyton mentagrophytes clinical isolate after 72 to 96 hrs by standard broth microdilution method; type: functional
Aspergillus fumigatus = experiment: Antifungal activity against Aspergillus fumigatus clinical isolate after 72 to 96 hrs by standard broth microdilution method; type: functional
Candida parapsilosis = experiment: Antifungal activity against Candida parapsilosis ATCC […] after 72 to 96 hrs by standard broth microdilution method; type: functional; details: Lodderomyces parapsilosis

SMILES	IC50 (Plasmodium falciparum [1]) [nM]	IC50 (Plasmodium falciparum [2]) [nM]	selectivity ratio [3]	MIC (Escherichia coli) [µg/mL]	MIC (Pseudomonas aeruginosa) [µg/mL]	MIC (Staphylococcus aureus) [µg/mL]	MIC (Klebsiella pneumoniae) [µg/mL]	MIC (Candida albicans) [µg/mL]	MIC (Cryptococcus neoformans) [µg/mL]	MIC (Sporothrix schenckii) [µg/mL]	MIC [4] [µg/mL]	MIC (Aspergillus fumigatus) [µg/mL]	MIC (Candida parapsilosis) [µg/mL]
COC(=O)/C(C)=C/c1ccc(Oc2ccc(N/C(=N/c3ccccc3)NCCCCNc3ccnc4cc(Cl)ccc34)cc2)cc1	94.4	76.7	91.8	25 (≈ 39.4 µM)	> 50	50 (≈ 78.8 µM)	50 (≈ 78.8 µM)	25 (≈ 39.4 µM)	25 (≈ 39.4 µM)	25 (≈ 39.4 µM)	25 (≈ 39.4 µM)	> 50	25 (≈ 39.4 µM)
COC(=O)/C(C)=C/c1ccc(Oc2ccc(N/C(=N/c3cccc(Cl)c3)NCCCCNc3ccnc4cc(Cl)ccc34)cc2)cc1	51.9	66.8	47.9	12.5 (≈ 18.7 µM)	> 50	3.12 (≈ 4.67 µM)	50 (≈ 74.8 µM)	> 50	> 50	50 (≈ 74.8 µM)	50 (≈ 74.8 µM)	> 50	> 50
Clc1cccc(/N=C(\NCCNc2ccnc3cc(Cl)ccc23)Nc2ccc(Oc3cc(Cl)ccc3Cl)cc2)c1	62.8	> 817	53.2	6.25 (≈ 10.2 µM)	> 50	12.5 (≈ 20.4 µM)	> 50	3.12 (≈ 5.1 µM)	12.5 (≈ 20.4 µM)	3.12 (≈ 5.1 µM)	6.25 (≈ 10.2 µM)	50 (≈ 81.8 µM)	25 (≈ 40.9 µM)
Clc1ccc(Cl)c(Oc2ccccc2N/C(=N/c2ccccc2)NCCNc2ccnc3cc(Cl)ccc23)c1	42.5	95.8	173	25 (≈ 43.3 µM)	> 50	12.5 (≈ 21.7 µM)	50 (≈ 86.7 µM)	50 (≈ 86.7 µM)	> 50	50 (≈ 86.7 µM)	25 (≈ 43.3 µM)	> 50	50 (≈ 86.7 µM)
Clc1ccc(/N=C(\NCCNc2ccnc3cc(Cl)ccc23)Nc2ccc(Oc3cc(Cl)ccc3Cl)cc2)cc1	44	54.1	189	6.25 (≈ 10.2 µM)	> 50	25 (≈ 40.9 µM)	> 50	6.25 (≈ 10.2 µM)	6.25 (≈ 10.2 µM)	3.12 (≈ 5.1 µM)	6.25 (≈ 10.2 µM)	6.25 (≈ 10.2 µM)	12.5 (≈ 20.4 µM)
Clc1cccc(/N=C(\NCCCCNc2ccnc3cc(Cl)ccc23)Nc2ccc(Oc3cc(Cl)ccc3Cl)cc2)c1	126	> 782	26.3	6.25 (≈ 9.77 µM)	> 50	6.25 (≈ 9.77 µM)	50 (≈ 78.2 µM)	3.12 (≈ 4.88 µM)	12.5 (≈ 19.5 µM)	3.12 (≈ 4.88 µM)	6.25 (≈ 9.77 µM)	25 (≈ 39.1 µM)	6.25 (≈ 9.77 µM)
COc1ccc(Oc2ccc(N/C(=N/c3cccc(Cl)c3)NCCNc3ccnc4cc(Cl)ccc34)cc2)cc1	88.7	83.3	91.3	12.5 (≈ 21.8 µM)	> 50	12.5 (≈ 21.8 µM)	12.5 (≈ 21.8 µM)	25 (≈ 43.7 µM)	> 50	12.5 (≈ 21.8 µM)	12.5 (≈ 21.8 µM)	> 50	> 50
COC(=O)/C(C)=C/c1ccc(Oc2ccc(N/C(=N/c3ccccc3)NCCCNc3ccnc4cc(Cl)ccc34)cc2)cc1	78.2	> 800	84.3	50 (≈ 80.6 µM)	> 50	25 (≈ 40.3 µM)	> 50	6.25 (≈ 10.1 µM)	6.25 (≈ 10.1 µM)	6.25 (≈ 10.1 µM)	12.5 (≈ 20.2 µM)	25 (≈ 40.3 µM)	25 (≈ 40.3 µM)
COC(=O)/C(C)=C/c1ccc(Oc2ccccc2N/C(=N/c2ccccc2)NCCCCNc2ccnc3cc(Cl)ccc23)cc1	287	141	78	> 50	> 50	> 50	> 50	> 50	> 50	> 50	> 50	> 50	> 50
Clc1cccc(/N=C(\NCCCCNc2ccnc3cc(Cl)ccc23)Nc2ccccc2Oc2cc(Cl)ccc2Cl)c1	149	432	7.7	12.5 (≈ 19.5 µM)	50 (≈ 78.2 µM)	1.56 (≈ 2.44 µM)	12.5 (≈ 19.5 µM)	25 (≈ 39.1 µM)	50 (≈ 78.2 µM)	25 (≈ 39.1 µM)	25 (≈ 39.1 µM)	50 (≈ 78.2 µM)	25 (≈ 39.1 µM)
COc1ccc(Oc2ccc(N/C(=N/c3ccccc3)NCCCNc3ccnc4cc(Cl)ccc34)cc2)cc1	36.6	680	97.8	6.25 (≈ 11.3 µM)	> 50	6.25 (≈ 11.3 µM)	12.5 (≈ 22.6 µM)	25 (≈ 45.3 µM)	25 (≈ 45.3 µM)	12.5 (≈ 22.6 µM)	12.5 (≈ 22.6 µM)	25 (≈ 45.3 µM)	12.5 (≈ 22.6 µM)
COC(=O)/C(C)=C/c1ccc(Oc2ccccc2N/C(=N/c2ccc(Cl)cc2)NCCCCNc2ccnc3cc(Cl)ccc23)cc1	96.8	41.2	102	12.5 (≈ 18.7 µM)	> 50	1.56 (≈ 2.33 µM)	> 50	50 (≈ 74.8 µM)	50 (≈ 74.8 µM)	6.25 (≈ 9.35 µM)	6.25 (≈ 9.35 µM)	> 50	> 50
COC(=O)/C(C)=C/c1ccc(Oc2ccc(N/C(=N/c3ccc(Cl)cc3)NCCCCNc3ccnc4cc(Cl)ccc34)cc2)cc1	56.4	716	145	25 (≈ 37.4 µM)	> 50	12.5 (≈ 18.7 µM)	50 (≈ 74.8 µM)	6.25 (≈ 9.35 µM)	6.25 (≈ 9.35 µM)	6.25 (≈ 9.35 µM)	12.5 (≈ 18.7 µM)	50 (≈ 74.8 µM)	12.5 (≈ 18.7 µM)
Clc1cccc(/N=C(\NCCNc2ccnc3cc(Cl)ccc23)Nc2ccccc2Oc2cc(Cl)ccc2Cl)c1	69.6	422	56.2	6.25 (≈ 10.2 µM)	> 50	1.56 (≈ 2.55 µM)	> 50	50 (≈ 81.8 µM)	> 50	50 (≈ 81.8 µM)	50 (≈ 81.8 µM)	> 50	50 (≈ 81.8 µM)
Clc1ccc(/N=C(\NCCCNc2ccnc3cc(Cl)ccc23)Nc2ccccc2Oc2cc(Cl)ccc2Cl)cc1	87.2	> 800	112	12.5 (≈ 20 µM)	> 50	6.25 (≈ 9.99 µM)	> 50	6.25 (≈ 9.99 µM)	25 (≈ 40 µM)	25 (≈ 40 µM)	> 50	> 50	50 (≈ 80 µM)
Clc1ccc(Cl)c(Oc2ccc(N/C(=N/c3ccccc3)NCCCCNc3ccnc4cc(Cl)ccc34)cc2)c1	307	> 826	29.9	12.5 (≈ 20.7 µM)	> 50	12.5 (≈ 20.7 µM)	25 (≈ 41.3 µM)	12.5 (≈ 20.7 µM)	25 (≈ 41.3 µM)	25 (≈ 41.3 µM)	25 (≈ 41.3 µM)	25 (≈ 41.3 µM)	12.5 (≈ 20.7 µM)
Clc1cccc(/N=C(\NCCCNc2ccnc3cc(Cl)ccc23)Nc2ccc(Oc3cc(Cl)ccc3Cl)cc2)c1	76.2	> 800	44.5	6.25 (≈ 9.99 µM)	> 50	12.5 (≈ 20 µM)	> 50	3.12 (≈ 4.99 µM)	6.25 (≈ 9.99 µM)	3.12 (≈ 4.99 µM)	6.25 (≈ 9.99 µM)	12.5 (≈ 20 µM)	25 (≈ 40 µM)
COc1ccc(Oc2ccc(N/C(=N/c3ccc(Cl)cc3)NCCCCNc3ccnc4cc(Cl)ccc34)cc2)cc1	33.7	138	88.7	6.25 (≈ 10.4 µM)	> 50	6.25 (≈ 10.4 µM)	25 (≈ 41.6 µM)	25 (≈ 41.6 µM)	25 (≈ 41.6 µM)	12.5 (≈ 20.8 µM)	12.5 (≈ 20.8 µM)	25 (≈ 41.6 µM)	6.25 (≈ 10.4 µM)
COc1ccc(Oc2ccc(N/C(=N/c3ccc(Cl)cc3)NCCCNc3ccnc4cc(Cl)ccc34)cc2)cc1	204	> 800	82.1	12.5 (≈ 21.3 µM)	> 50	12.5 (≈ 21.3 µM)	50 (≈ 85.2 µM)	50 (≈ 85.2 µM)	50 (≈ 85.2 µM)	25 (≈ 42.6 µM)	25 (≈ 42.6 µM)	50 (≈ 85.2 µM)	25 (≈ 42.6 µM)
Clc1ccc(/N=C(\NCCNc2ccnc3cc(Cl)ccc23)Nc2ccccc2Oc2cc(Cl)ccc2Cl)cc1	58.1	> 800	16.5	12.5 (≈ 20.4 µM)	> 50	6.25 (≈ 10.2 µM)	> 50	25 (≈ 40.9 µM)	> 50	25 (≈ 40.9 µM)	50 (≈ 81.8 µM)	> 50	> 50
COc1ccc(Oc2ccc(N/C(=N/c3ccc(Cl)cc3)NCCNc3ccnc4cc(Cl)ccc34)cc2)cc1	69	105	122	6.25 (≈ 10.9 µM)	> 50	6.25 (≈ 10.9 µM)	12.5 (≈ 21.8 µM)	12.5 (≈ 21.8 µM)	25 (≈ 43.7 µM)	6.25 (≈ 10.9 µM)	12.5 (≈ 21.8 µM)	25 (≈ 43.7 µM)	12.5 (≈ 21.8 µM)
